The source of these data is ChEMBL document CHEMBL4190253, “Synthesis of novel 5-(aroylhydrazinocarbonyl)escitalopram as cholinesterase inhibitors” (Eur J Med Chem, 2017).

One assay deals with Cholinesterase (Equus caballus, UniProt P81908). Nature of the assay: Inhibition of equine serum BCHE using butyrylthiocholine iodide as substrate preincubated for 10 mins followed by substrate addition measured after 30 mins by Ellman's method.
Assay [1] can be described thus: Selectivity ratio of IC50 for electric eel AChE to IC50 for equine serum BCHE.
Assay [2] has as its target Acetylcholinesterase (Electrophorus electricus) (UniProt O42275). The experiment in a line: Inhibition of electric eel AChE at 0.5 mM using acetylthiocholine iodide as substrate preincubated for 10 mins followed by substrate addition measured after 30 mins by Ellman's method relative to control. Background: In Ellman's method for cholinesterases, released thiocholine reacts with DTNB.

In a further assay the target is Acetylcholinesterase (Electrophorus electricus, UniProt O42275). The experiment in a line: Inhibition of electric eel AChE using acetylthiocholine iodide as substrate preincubated for 10 mins followed by substrate addition measured after 30 mins by Ellman's method.
Assay [3] concerns the target Cholinesterase (Equus caballus) (UniProt P81908). Nature of the assay: Inhibition of equine serum BCHE at 0.5 mM using butyrylthiocholine iodide as substrate preincubated for 10 mins followed by substrate addition measured after 30 mins by Ellman's method relative to control.

Chain of Acetylcholinesterase (Electrophorus electricus) (O42275 24-633 limits assumed): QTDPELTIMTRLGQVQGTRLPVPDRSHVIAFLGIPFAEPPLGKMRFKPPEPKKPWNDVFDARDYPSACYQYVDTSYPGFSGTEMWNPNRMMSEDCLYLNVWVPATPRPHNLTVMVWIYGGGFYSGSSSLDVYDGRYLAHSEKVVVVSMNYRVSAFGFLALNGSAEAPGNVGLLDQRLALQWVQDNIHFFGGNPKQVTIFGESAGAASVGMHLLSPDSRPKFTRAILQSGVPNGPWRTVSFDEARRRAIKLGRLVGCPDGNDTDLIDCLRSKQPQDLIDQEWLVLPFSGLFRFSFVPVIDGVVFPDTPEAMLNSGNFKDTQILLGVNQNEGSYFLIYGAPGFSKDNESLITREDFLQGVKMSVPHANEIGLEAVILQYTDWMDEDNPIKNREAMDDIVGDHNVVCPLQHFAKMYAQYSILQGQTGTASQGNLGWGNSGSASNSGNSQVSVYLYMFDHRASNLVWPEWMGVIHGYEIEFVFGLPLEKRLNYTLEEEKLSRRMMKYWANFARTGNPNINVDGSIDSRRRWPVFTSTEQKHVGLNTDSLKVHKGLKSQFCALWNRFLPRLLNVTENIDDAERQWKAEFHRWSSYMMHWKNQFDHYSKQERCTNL
Chain of Cholinesterase (Equus caballus) (P81908 whole entry): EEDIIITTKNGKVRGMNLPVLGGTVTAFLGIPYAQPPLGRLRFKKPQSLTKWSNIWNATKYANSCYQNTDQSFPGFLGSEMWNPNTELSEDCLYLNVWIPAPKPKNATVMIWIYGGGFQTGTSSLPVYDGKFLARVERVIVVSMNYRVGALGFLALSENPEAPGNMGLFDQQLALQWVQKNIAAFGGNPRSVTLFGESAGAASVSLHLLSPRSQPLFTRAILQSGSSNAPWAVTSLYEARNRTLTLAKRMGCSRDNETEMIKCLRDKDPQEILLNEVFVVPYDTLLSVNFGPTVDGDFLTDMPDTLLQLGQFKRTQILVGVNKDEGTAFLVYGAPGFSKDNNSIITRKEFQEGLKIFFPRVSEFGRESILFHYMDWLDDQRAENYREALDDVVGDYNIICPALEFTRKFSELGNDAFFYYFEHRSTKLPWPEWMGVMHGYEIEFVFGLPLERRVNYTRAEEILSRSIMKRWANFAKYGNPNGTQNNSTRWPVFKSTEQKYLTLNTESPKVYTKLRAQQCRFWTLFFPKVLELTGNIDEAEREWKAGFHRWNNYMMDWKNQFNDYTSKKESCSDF
Chain of Cholinesterase (P81908 whole entry): as above
Chain of Acetylcholinesterase (O42275 whole entry): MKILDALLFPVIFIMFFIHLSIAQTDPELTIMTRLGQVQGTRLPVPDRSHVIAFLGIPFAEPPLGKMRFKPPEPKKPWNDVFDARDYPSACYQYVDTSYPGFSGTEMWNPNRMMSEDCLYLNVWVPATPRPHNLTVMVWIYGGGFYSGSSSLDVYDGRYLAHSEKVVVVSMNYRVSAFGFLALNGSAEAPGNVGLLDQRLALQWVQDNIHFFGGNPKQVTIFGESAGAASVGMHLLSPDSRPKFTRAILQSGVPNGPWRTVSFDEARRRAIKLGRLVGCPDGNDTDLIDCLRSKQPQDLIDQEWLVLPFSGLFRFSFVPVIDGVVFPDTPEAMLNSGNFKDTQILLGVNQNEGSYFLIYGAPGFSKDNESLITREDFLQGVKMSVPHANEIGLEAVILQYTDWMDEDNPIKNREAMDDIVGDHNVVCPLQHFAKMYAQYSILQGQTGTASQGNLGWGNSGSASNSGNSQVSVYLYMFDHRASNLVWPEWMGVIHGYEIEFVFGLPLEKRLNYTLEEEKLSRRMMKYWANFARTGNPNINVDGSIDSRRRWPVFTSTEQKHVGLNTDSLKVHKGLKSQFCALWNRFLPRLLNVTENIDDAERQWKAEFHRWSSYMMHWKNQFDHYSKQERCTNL

For orientation: IC50 means the concentration that inhibits the measured activity by half. Low readings indicate greater potency in that assay, high ones weaker potency in that assay. The inhibition is the relative decrease from the control value, in per cent. Low values mean a weak effect, high ones a strong effect. Turning to `CN(C)CCCC1(c2ccc(F)cc2)OCc2cc(C(=O)NNC(=O)c3cccc(F)c3)ccc21` (stereo unspecified), the IC50 amounted to 185 µM on Cholinesterase and 141 µM at Acetylcholinesterase. In addition, in assay [1], the Ratio IC50 was 0.76. For the same molecule, the results for the inhibition in assay [2] and in assay [3] were 77.1% and 73.3%, respectively.

As to `Cc1cccc(C(=O)NNC(=O)c2ccc3c(c2)COC3(CCCN(C)C)c2ccc(F)cc2)c1` (stereo unspecified), the IC50 worked out at 88.7 µM against Cholinesterase and 117 µM at Acetylcholinesterase. Further, the Ratio IC50 in assay [1] turned out to be 1.32. The values for the inhibition in assay [2] and in assay [3] were 82.6% and 85.7%, respectively.

Turning to `CN(C)CCCC1(c2ccc(F)cc2)OCc2cc(C(=O)NNC(=O)c3cccc(Br)c3)ccc21` (stereo unspecified), the half-inhibitory concentration (IC50) came out at 130 µM at Cholinesterase and 115 µM against Acetylcholinesterase. In assay [1], the Ratio IC50 worked out at 0.88. For the same molecule, the inhibition in assay [2] came to 80.1%; in assay [3], 88.8%.

For the molecule `CN(C)CCCC1(c2ccc(F)cc2)OCc2cc(C(=O)NNC(=O)c3ccc(Cl)cc3)ccc21` (stereo unspecified), the IC50 at Cholinesterase was determined as 138 µM; on Acetylcholinesterase, 6.71 µM. Moreover, the Ratio IC50 in assay [1] is 0.04. The inhibition is 86.1% in assay [2] and 78.4% in assay [3].

As to `COc1ccccc1C(=O)NNC(=O)c1ccc2c(c1)COC2(CCCN(C)C)c1ccc(F)cc1` (stereo unspecified), the IC50 came out at 130 µM against Cholinesterase and 45.8 µM at Acetylcholinesterase. For the same molecule, the Ratio IC50 in assay [1] came to 0.35. The inhibition in assay [2] is 88.6%; in assay [3] it was 88.8%.

`Cc1ccccc1C(=O)NNC(=O)c1ccc2c(c1)COC2(CCCN(C)C)c1ccc(F)cc1` (stereo unspecified): the 50% inhibitory concentration (IC50) against Cholinesterase was 233 µM; against Acetylcholinesterase it was 115 µM. Also, the Ratio IC50 in assay [1] amounted to 0.49. Further, the inhibition was determined as 83.4% in assay [2] and 72.4% in assay [3].

With `CN(C)CCCC1(c2ccc(F)cc2)OCc2cc(C(=O)NNC(=O)c3ccc(O)cc3)ccc21` (stereo unspecified), the IC50 at Cholinesterase was 192 µM; on Acetylcholinesterase, 117 µM. For the same molecule, the Ratio IC50 in assay [1] is 0.61. The inhibition in assay [2] was determined as 84.6%; in assay [3], 73.2%.

Take `CN(C)CCCC1(c2ccc(F)cc2)OCc2cc(C(=O)NNC(=O)c3cccc([N+](=O)[O-])c3)ccc21` (stereo unspecified): the results for the IC50 against Cholinesterase and at Acetylcholinesterase were 185 µM and 137 µM, respectively. Moreover, in assay [1], the Ratio IC50 stood at 0.74. The inhibition came out at 79.3% in assay [2] and 73.3% in assay [3].

`CN(C)CCCC1(c2ccc(F)cc2)OCc2cc(C(=O)NNC(=O)c3cccc(Cl)c3)ccc21` (stereo unspecified): the IC50 against Cholinesterase amounted to 3.9 µM; against Acetylcholinesterase it was 1.8 µM. Besides, the Ratio IC50 in assay [1] amounted to 0.46. Moreover, the inhibition in assay [2] was determined as 93.5%; in assay [3] it was 84%.

Take `CN(C)CCCC1(c2ccc(F)cc2)OCc2cc(C(=O)NNC(=O)c3ccccc3N)ccc21` (stereo unspecified): the IC50 against Cholinesterase stood at 68.2 µM; at Acetylcholinesterase, 118 µM. Besides, in assay [1], the Ratio IC50 stood at 1.72. The inhibition in assay [2] came to 84.5%; in assay [3], 84.4%.

Consider `CN(C)CCCC1(c2ccc(F)cc2)OCc2cc(C(=O)NNC(=O)c3ccccc3)ccc21` (stereo unspecified), for which the IC50 against Cholinesterase turned out to be 75.8 µM; against Acetylcholinesterase it was 268 µM. In assay [1], the Ratio IC50 turned out to be 3.53. The figures for the inhibition in assay [2] and in assay [3] were 69.8% and 81.5%, respectively.

For the molecule `CN(C)CCCC1(c2ccc(F)cc2)OCc2cc(C(=O)NNC(=O)c3ccc(Br)cc3)ccc21` (stereo unspecified), the IC50 worked out at 190 µM against Cholinesterase and 118 µM against Acetylcholinesterase. In assay [1], the Ratio IC50 stood at 0.62. The inhibition in assay [2] is 78.3%; in assay [3], 76.2%.

`CNC(=O)Oc1ccc2c(c1)[C@]1(C)CCN(C)[C@@H]1N2C`: in assay [3], the inhibition amounted to 82.8%.

For the molecule `CN(C)CCCC1(c2ccc(F)cc2)OCc2cc(C(=O)NNC(=O)c3cccc(O)c3)ccc21` (stereo unspecified), the IC50 against Cholinesterase turned out to be 129 µM; at Acetylcholinesterase it was 197 µM. Further, in assay [1], the Ratio IC50 was determined as 1.52. For the same molecule, the inhibition is 64.4% in assay [2] and 88.2% in assay [3].

With `CN(C)CCCC1(c2ccc(F)cc2)OCc2cc(C(=O)NNC(=O)c3ccccc3I)ccc21` (stereo unspecified), the figures for the half-inhibitory concentration (IC50) on Cholinesterase and against Acetylcholinesterase were 77.9 µM and 146 µM, respectively. The Ratio IC50 in assay [1] worked out at 1.87. The inhibition in assay [2] stood at 81.8%; in assay [3], 82.6%.

Regarding `CN(C)CCCC1(c2ccc(F)cc2)OCc2cc(C(=O)NNC(=O)c3cccc(I)c3)ccc21` (stereo unspecified), the IC50 on Cholinesterase is 70.2 µM; at Acetylcholinesterase it was 127 µM. Also, the Ratio IC50 in assay [1] came out at 1.81. Moreover, the inhibition in assay [2] was 83.7%; in assay [3], 85.4%.

For the molecule `CN(C)CCCC1(c2ccc(F)cc2)OCc2cc(C(=O)NNC(=O)c3ccc(F)cc3)ccc21` (stereo unspecified), the IC50 is 179 µM at Cholinesterase and 112 µM at Acetylcholinesterase. For the same molecule, the Ratio IC50 in assay [1] stood at 0.63. Also, the inhibition in assay [2] is 86.6%; in assay [3], 74.6%.

For `CN(C)CCCC1(c2ccc(F)cc2)OCc2cc(C(=O)NNC(=O)c3ccccc3[N+](=O)[O-])ccc21` (stereo unspecified), the IC50 against Cholinesterase amounted to 76.3 µM; at Acetylcholinesterase, 256 µM. The Ratio IC50 in assay [1] was found to be 3.35. For the same molecule, the inhibition turned out to be 70.3% in assay [2] and 84.1% in assay [3].

With `CN(C)CCCC1(c2ccc(F)cc2)OCc2cc(C(=O)NNC(=O)c3ccccc3O)ccc21` (stereo unspecified), the 50% inhibitory concentration (IC50) against Cholinesterase was determined as 89 µM; on Acetylcholinesterase, 296 µM. The Ratio IC50 in assay [1] amounted to 3.32. Moreover, the results for the inhibition in assay [2] and in assay [3] were 59% and 85.7%, respectively.

Take `CN(C)CCCC1(c2ccc(F)cc2)OCc2cc(C(=O)NNC(=O)c3ccc(I)cc3)ccc21` (stereo unspecified): the figures for the IC50 against Cholinesterase and at Acetylcholinesterase were 5.88 µM and 210 µM, respectively. In assay [1], the Ratio IC50 turned out to be 35.7. Also, the results for the inhibition in assay [2] and in assay [3] were 76.4% and 85.5%, respectively.

For the molecule `CN(C)CCCC1(c2ccc(F)cc2)OCc2cc(C(=O)NNC(=O)c3ccc(N)cc3)ccc21` (stereo unspecified), the concentration for half-maximal inhibition (IC50) amounted to 5.98 µM on Cholinesterase and 129 µM at Acetylcholinesterase. For the same molecule, the Ratio IC50 in assay [1] amounted to 21.6. The inhibition in assay [2] is 83.2%; in assay [3], 85.5%.

On to `CN(C)CCCC1(c2ccc(F)cc2)OCc2cc(C(=O)NNC(=O)c3ccccc3Br)ccc21` (stereo unspecified), for which the figures for the IC50 against Cholinesterase and against Acetylcholinesterase were 2.11 µM and 7.81 µM, respectively. Also, the Ratio IC50 in assay [1] was 3.7. Also, the inhibition stood at 85.2% in assay [2] and 84.1% in assay [3].

As for `CN(C)CCCC1(c2ccc(F)cc2)OCc2cc(C(=O)NNC(=O)c3ccc([N+](=O)[O-])cc3)ccc21` (stereo unspecified), the IC50 was determined as 169 µM at Cholinesterase and 125 µM on Acetylcholinesterase. For the same molecule, in assay [1], the Ratio IC50 was 0.74. Also, the inhibition in assay [2] worked out at 75.8%; in assay [3] it was 74.6%.

On to `COc1cc(C(=O)NNC(=O)c2ccc3c(c2)COC3(CCCN(C)C)c2ccc(F)cc2)ccc1O` (stereo unspecified), for which the figures for the IC50 at Cholinesterase and on Acetylcholinesterase were 76.9 µM and 112 µM, respectively. In assay [1], the Ratio IC50 is 1.45. Further, the inhibition turned out to be 81.3% in assay [2] and 84.1% in assay [3].

As to `COc1ccc(C(=O)NNC(=O)c2ccc3c(c2)COC3(CCCN(C)C)c2ccc(F)cc2)cc1` (stereo unspecified), the IC50 at Cholinesterase came to 196 µM; against Acetylcholinesterase it was 124 µM. In addition, the Ratio IC50 in assay [1] is 0.63. For the same molecule, the figures for the inhibition in assay [2] and in assay [3] were 76.4% and 72.2%, respectively.

As to `CN(C)CCCC1(c2ccc(F)cc2)OCc2cc(C(=O)NNC(=O)c3ccccc3Cl)ccc21` (stereo unspecified), the IC50 on Cholinesterase worked out at 69.3 µM; at Acetylcholinesterase, 116 µM. The Ratio IC50 in assay [1] is 1.67. For the same molecule, the inhibition in assay [2] was determined as 81.4%; in assay [3], 85.4%.

In the case of `Cc1ccc(C(=O)NNC(=O)c2ccc3c(c2)COC3(CCCN(C)C)c2ccc(F)cc2)cc1` (stereo unspecified), the half-inhibitory concentration (IC50) on Cholinesterase was 158 µM; against Acetylcholinesterase it was 268 µM. The Ratio IC50 in assay [1] was found to be 1.69. In addition, the inhibition in assay [2] came to 69.7%; in assay [3], 76.6%.

For the molecule `CN(C)CCCC1(c2ccc(F)cc2)OCc2cc(C(=O)NNC(=O)c3ccccc3F)ccc21` (stereo unspecified), the results for the half-maximal inhibitory concentration (IC50) on Cholinesterase and on Acetylcholinesterase were 71.4 µM and 111 µM, respectively. Besides, the Ratio IC50 in assay [1] was 1.55. Also, the inhibition in assay [2] is 84.4%; in assay [3], 85.5%.
